Patent publication US12053473B2, “Benzylamino substituted quinazolines and derivatives as SOS1 inhibitors” (priority 2016, dated 2024)
Where two headings read alike, the source gives them in different places.

How the values were obtained:
[1] = tested on: cleaved PARP in NCI-H358 (KRAS G12C) NSCLC cells; format: cell-based, human; settings: NCI-H358, 3D, 10% serum; 1 μM I-13, 125 nM afatinib, alone or combined; 24 h, 48 h, 72 h
[2] = tested on: KRAS G12C mutant MIA PaCa-2 pancreatic xenograft; format: in vivo, mouse; settings: monotherapy
Experimental: In Vivo Efficacy Experiments
Cultures are incubated at 37° C. and 5% CO2 in a humidified atmosphere, with medium change or subcultivation performed 2-3 times a week. For injection tumor cells are mixed with PBS including 5% FCS and Matrigel in a ratio of 1:1. 1×10EXP7 cells in a volume of 100 μL are injected subcutaneous in each mouse to establish tumors. […] The vehicle control, trametinib, 1-13 or the respective combination is administered intragastrically using a gavage needle at an application volume of 10 mL/kg in a volume of 10 mL/kg per mouse daily twice with a 6 h difference. Trametinib is dissolved in 0.5% DMSO and 0.5% Natrosol. Paclitaxel is formulated in 0.9% NaCl and is applied intravenously once a week at 10 mg/kg in a volume of 10 mL/kg. […]
Standardized irradiated diet (PROVIMI KLIBA) and autoclaved tap water are provided ad libitum. Microchips implanted subcutaneously under isoflurane anesthesia are used to identify each mouse. Cage cards showing the study number, the animal number, the compound and dose level, the administration route as well as the schedule remain with the animals throughout the study. The tumor diameter is measured two-three times a week with a caliper. The volume of each tumor [in mm^3] is calculated according to the formula “tumor volume=length*diameter2*π/6”. To monitor side effects of treatment, mice are inspected daily for abnormalities and body weight is determined daily. Animals are sacrificed at the end of the study. Animals with necrotic tumors or tumor sizes exceeding 1500 mm^3 are sacrificed early during the study for ethical reasons.
All compounds were applied twice daily per os (p.o.).

[3] = tested on: phosphorylation of MEK1/2 (Ser217/221) in MIA PaCa-2 cells (KRAS G12C); assay: MEK phosphorylation (Western blot) in MIA PaCa-2 cells; format: cell-based, human; settings: MIA PaCa-2, 2D; 25 nM trametinib alone or with 1 μM I-13; 2 h, 4 h, 8 h
Text: ERK and MEK Phosphorylation to Investigate the Combinatorial Effect of SOS1 Inhibitors with MEK Inhibitors
ERK and MEK phosphorylation assays are also used to investigate combinatorial effects of SOS1 inhibitors with MEK inhibitors, e.g. in MIA PaCa-2 cells.
• 96-well Ultra low binding plates from Corning (CLS2474-24EA); • DMEM (Lonza BE12-604F); • Fetal Bovine Serum (FBS) from HyClone (SH30071.03); • Cell lysate buffer (CLB):10× (Cell Signaling, Cat #9803)
For lysis of the cells a 1.2 fold concentrated CLB is used including the following supplements: 120 μL Cell Lysis Buffer 10×(Cell Signaling, Cat #9803)+870 μL H2O is supplemented with 10 μL HALT Protease & Phosphatase Inhibitor Cocktail (Thermo Scientific, Prod #1861281)+1 μL PMSF Stock sol. (Sigma, Cat #P7626) […]
ImageQuant LAS 4000 is used to induce a Chemilumescence signal that is detected with an Amersham Hyperfilm MP (GE Healthcare, Cat #28906847). […] Band quantification is performed by using the software “Image Quant TL” from GE Health.
MIA PaCa-2 cells are seeded at 1.16×E6 cells per 6 well plate in 2 mL DMEM medium supplemented with 2% FCS in 6 well plates. […] The protein concentration of the cell lysate is quantified by Bradford protein assay according to the manufacturer's instructions. […]
. Cell lysate was generated at the respective timepoints and the effect on ERK or MEK phosphorylation was analysed using Western-blotting. […]

[4] = tested on: phosphorylation of ERK1/2 (Thr202/Tyr204) in MIA PaCa-2 cells (KRAS G12C); settings: MIA PaCa-2, 2D; 50 nM trametinib
Experimental: Secondary Antibody (incubated 1 h at room temperature): Use a blocking buffer with a 1:1000 dilution of the anti-Rabbit IgG-HRP (Dako, Cat #P0448)
ECL Western Blotting Detection Reagents (GE Healthcare, Cat #RPN2106)
The film is developed with the device Protec Optimax. Band quantification is performed by using the software “Image Quant TL” from GE Health.
Cells are incubated over night at 37° C. with 5% CO2. The next day inhibitors are added with a HP D300 digital Dispenser. Following addition of the respective inhibitor the 6-well plate is incubated for 24 h, 48 h or 72 h, respectively. At the respective timepoint cells are lysed. […] Following this the lysate is centrifuged (16000 rpm, 4° C. for 15 minutes) and the supernatant is stored at −80° C. and used for subsequent steps. The protein concentration of the cell lysate is quantified by Bradford protein assay according to the manufacturer's instructions. […]

[5] = biological target: SOS1 and KRAS G12D (protein-protein interaction) (Homo sapiens, UniProt Q07889); assay: KRAS::SOS1 AlphaScreen binding assay; settings: read-out: IC50 (SOS1)
In short: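 Compounds were tested in duplicate at 11 concentrations (1:5 serial from 100 μM, 1% DMSO). They were preincubated 30 min with final 10 nM KRAS G12D, 10 μM GDP and 5 nM GST-SOS1, then glutathione acceptor and streptavidin donor beads (10 μg/mL each) were added for 60 min at RT in the dark. AlphaScreen signal gave IC50 via 4-parameter logistic fit.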

CN(C)C/C=C/C(=O)Nc1cc2c(Nc3ccc(F)c(Cl)c3)ncnc2cc1O[C@H]1CCOC1 [afatinib]
apoptosis induction (levels of cleaved PARP) [1]: needed 48 h to show apoptosis induction

Nc1ccn([C@@H]2O[C@H](CO)[C@@H](O)C2(F)F)c(=O)n1 [gemcitabine]
TGI ([2]; gemcitabine 50 mg/kg q4d i.p.): 4%

CC(=O)Nc1cccc(-n2c(=O)n(C3CC3)c(=O)c3c(Nc4ccc(I)cc4F)n(C)c(=O)c(C)c32)c1 [trametinib]
levels of phosphorylated MEK1/2 (Ser 217/221) [3]: increased levels of MEK1/2 (Ser 217/221) | TGI ([2]; trametinib 0.05 mg/kg twice daily p.o.): 50% | tumor regressions ([2]; trametinib 0.125 mg/kg or 0.05 mg/kg twice daily p.o.): no regressions in any tumors | TGI ([2]; trametinib 0.125 mg/kg twice daily p.o.): 73% | reduction of ERK1/2 (Thr 202/Tyr 204) phosphorylation levels compared to untreated control cells [4]: 65-75%

CC(=O)O[C@H]1C(=O)[C@@]2(C)[C@H]([C@H](OC(=O)c3ccccc3)[C@]3(O)C[C@H](OC(=O)[C@H](O)[C@@H](NC(=O)c4ccccc4)c4ccccc4)C(C)=C1C3(C)C)[C@]1(OC(C)=O)CO[C@@H]1C[C@@H]2O [paclitaxel]
TGI ([2]; paclitaxel 10 mg/kg q7d i.v., day 22): 62%

COc1cc2nc(C)nc(N[C@H](C)c3cc(N)cc(C(F)(F)F)c3)c2cc1[C@H]1CC[C@H](C(=O)N(C)C)CC1 [I-355]
IC50 [5]: 2 nM

Cc1nc(N[C@H](C)c2cc(N)cc(C(F)(F)F)c2)c2cc([C@H]3CC[C@@H](C(=O)N(C)[C@H]4CCOC4)CC3)ccc2n1 [I-251]
IC50 [5]: 10 nM
